29 compounds from patent US20240217978A1 (CHONG KUN DANG PHARMACEUTICAL CORP., priority 2021, published 2024) can be followed below.

pIC50: −log10 of the molar value.

The pIC50 is the negative decadic logarithm of the IC50, by convention in mol/L. Read a high pIC50 as a low IC50.

The target in the test is human adenosine A2a receptor (Homo sapiens (Human), UniProt P29274). Nature of the test: A2a receptor binding affinity, [3H]-NECA radioligand binding test. Conditions: [3H]-NECA 37 nM; membrane from HEK-293 cells transfected with human adenosine A2a receptor. Put shortly: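 Membranes from HEK-293 cells expressing human A2a receptor were incubated with [3H]-NECA (final 37 nM) and compound for 1 h at room temperature in 50 mM Tris, 10 mM MgCl2, 1 mM EDTA, pH 7.4. Bound ligand was filtered on PEI-coated plates and counted by scintillation to derive IC50 (μM).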
Sequence of human adenosine A2a receptor (P29274 whole entry): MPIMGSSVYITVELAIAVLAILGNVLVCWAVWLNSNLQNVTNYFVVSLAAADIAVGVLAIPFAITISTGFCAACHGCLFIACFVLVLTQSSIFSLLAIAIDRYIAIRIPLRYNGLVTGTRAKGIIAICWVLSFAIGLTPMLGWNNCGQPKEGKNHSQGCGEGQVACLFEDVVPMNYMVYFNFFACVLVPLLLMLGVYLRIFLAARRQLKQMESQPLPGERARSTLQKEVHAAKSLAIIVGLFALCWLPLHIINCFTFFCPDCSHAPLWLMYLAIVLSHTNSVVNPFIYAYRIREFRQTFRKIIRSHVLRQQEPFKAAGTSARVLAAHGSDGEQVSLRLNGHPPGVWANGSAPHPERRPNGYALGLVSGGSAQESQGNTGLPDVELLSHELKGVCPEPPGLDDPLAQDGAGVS
Take `Nc1nc(N2CC[C@H]2C(=O)N2CCN(CC(F)(F)C(F)F)CC2)nc2nc(-c3ccco3)nn12` [Example 255, (S)-(1-(7-amino-2-(furan-2-yl)-[1,2,4]triazolo[1,5-a][1,3,5]triazin-5-yl)azetidin-2-yl)(4-(2,2,3,3-tetrafluoropropyl)piperazin-1-yl)methanone]: the negative logarithm of the IC50 (pIC50) was 8.05. The figure for `Cc1ccc(-c2nc3nc(N4CC[C@H]4C(=O)N4CCN(C(=O)c5ccccc5)CC4)nc(N)n3n2)o1` [Example 207, (S)-(1-(7-amino-2-(5-methylfuran-2-yl)-[1,2,4]triazolo[1,5-a][1,3,5]triazin-5-yl)azetidin-2-yl)(4-benzoylpiperazin-1-yl)methanone] is 7.96; for `COC1CCN(C(=O)[C@@H]2CCCN2c2nc(N)n3nc(-c4ccco4)nc3n2)CC1` [Example 146, (S)-(1-(7-amino-2-(furan-2-yl)-[1,2,4]triazolo[1,5-a][1,3,5]triazin-5-yl)pyrrolidin-2-yl)(4-methoxypiperidin-1-yl)methanone] it is 7.74; for `CC(C)[C@H](Nc1nc(N)n2nc(-c3ccco3)nc2n1)C(=O)N1CCN(C(=O)CC(C)(C)O)CC1` [Example 369, 1-(4-((7-amino-2-(furan-2-yl)-[1,2,4]triazolo[1,5-a][1,3,5]triazin-5-yl)-L-valyl)piperazin-1-yl)-3-hydroxy-3-methylbutan-1-one] it is 7.85. For the compound `Cc1ccc(-c2nc3nc(N4CCC[C@H]4C(=O)N4CCN(CC(F)(F)C(F)(F)F)CC4)nc(N)n3n2)o1` [Example 299, (S)-(1-(7-amino-2-(5-methylfuran-2-yl)-[1,2,4]triazolo[1,5-a][1,3,5]triazin-5-yl)pyrrolidin-2-yl)(4-(2,2,3,3,3-pentafluoropropyl)piperazin-1-yl)methanone], the pIC50 was 8.05.

`CC(F)(F)CN1CCC(C2CCN(C(=O)[C@@H]3CCCN3c3cc4nc(-c5ccco5)nn4c(N)n3)CC2)CC1` [Example 394, (S)-(1-(5-amino-2-(furan-2-yl)-[1,2,4]triazolo[1,5-c]pyrimidin-7-yl)pyrrolidin-2-yl)(1′-(2,2-difluoropropyl)-[4,4′-bipiperidin]-1-yl)methanone] showed a pIC50 of 7.82.

`Nc1nc(N2CCC[C@H]2C(=O)N2CCN(c3ncccn3)CC2)nc2nc(-c3ccco3)nn12` [Example 127, (S)-(1-(7-amino-2-(furan-2-yl)-[1,2,4]triazolo[1,5-a][1,3,5]triazin-5-yl)pyrrolidin-2-yl)(4-(pyrimidin-2-yl)piperazin-1-yl)methanone] showed a negative-log IC50 (pIC50) of 8.52. The compound `Cc1ccc(-c2nc3nc(N4CCC[C@H]4C(=O)N4CCC(c5ccc(F)cc5F)CC4)nc(N)n3n2)o1` [Example 201, (S)-(1-(7-amino-2-(5-methylfuran-2-yl)-[1,2,4]triazolo[1,5-a][1,3,5]triazin-5-yl)pyrrolidin-2-yl)(4-(2,4-difluorophenyl)piperidin-1-yl) methanone] showed a pIC50 of 8.30. The result for `Nc1nc(N2CCC[C@H]2C(=O)N2CCCN(c3ccc(F)cc3F)CC2)nc2nc(-c3ccco3)nn12` [Example 276, (S)-(1-(7-amino-2-(furan-2-yl)-[1,2,4]triazolo[1,5-a][1,3,5]triazin-5-yl)pyrrolidin-2-yl)(4-(2,4-difluorophenyl)-1,4-diazepan-1-yl)methanone] reads 8.15. `Nc1nc(N2CCC[C@H]2C(=O)N2CCN(Cc3ccc(F)cc3)CC2)nc2nc(-c3ccco3)nn12` [Example 45, (S)-(1-(7-amino-2-(furan-2-yl)-[1,2,4]triazolo[1,5-a][1,3,5]triazin-5-yl)pyrrolidin-2-yl)(4-(4-fluorobenzyl)piperazin-1-yl)methanone] had a pIC50 of 7.72. Against the preceding compound, the pIC50 is 0.43 log units lower. Compound `Nc1nc(N2CCC[C@H]2C(=O)N2CCN(C(=O)c3cscn3)CC2)nc2nc(-c3ccco3)nn12` [Example 105] gave a pIC50 of 8.52. The figure for `Nc1nc(N2CC[C@H]2C(=O)N2CCC(C3CCN(CC(F)F)CC3)CC2)nc2nc(-c3ccco3)nn12` [Example 323, (S)-(1-(7-amino-2-(furan-2-yl)-[1,2,4]triazolo[1,5-a][1,3,5]triazin-5-yl)azetidin-2-yl)(1′-(2,2-difluoroethyl)-[4,4′-bipiperidin]-1-yl)methanone] is 8.52; for `COCCN1CCN(C(=O)[C@@H]2CCN2c2nc(N)n3nc(-c4ccco4)nc3n2)CC1` [Example 107, (S)-(1-(7-amino-2-(furan-2-yl)-[1,2,4]triazolo[1,5-a][1,3,5]triazin-5-yl)azetidin-2-yl)(4-(2-methoxyethyl)piperazin-1-yl) methanone] it is 8.05; for `CCCCN1CCN(C(=O)[C@H](COC)Nc2nc(N)n3nc(-c4ccco4)nc3n2)CC1` [Example 401, (S)-2-((7-amino-2-(furan-2-yl)-[1,2,4]triazolo[1,5-a][1,3,5]triazin-5-yl)amino)-1-(4-butylpiperazin-1-yl)-3-methoxypropan-1-one] it is 7.96. The result for `Nc1nc(N2CC[C@H]2C(=O)N2CCN(c3ccc(F)cc3F)CC2)nc2nc(-c3ccco3)nn12` [Example 112, (S)-(1-(7-amino-2-(furan-2-yl)-[1,2,4]triazolo[1,5-a][1,3,5]triazin-5-yl)azetidin-2-yl)(4-(2,4-difluorophenyl)piperazin-1-yl)methanone] reads 8.05; that for `Nc1nc(N2CCC[C@H]2C(=O)N2CCN(CC3(C(F)(F)F)CCCCC3)CC2)nc2nc(-c3ccco3)nn12` [Example 286], 8.70; that for `Nc1nc(N2CCC[C@H]2C(=O)N2CCC(C(=O)Nc3ccccc3)CC2)nc2nc(-c3ccco3)nn12` [Example 78, 1-((7-amino-2-(furan-2-yl)-[1,2,4]triazolo[1,5-a][1,3,5]triazin-5-yl)-L-prolyl)-N-phenylpiperidin-4-carboxamide], 7.85. The figure for `C[C@@H]1CN(C(=O)Nc2ccccc2)CCN1C(=O)[C@@H]1CCCN1c1nc(N)n2nc(-c3ccco3)nc2n1` [Example 182, (R)-4-((7-amino-2-(furan-2-yl)-[1,2,4]triazolo[1,5-a][1,3,5]triazine-5-yl)-L-prolyl)-3-methyl-N-phenylpiperazin-1-carboxamide] is 8.10.

`Cc1ccc(-c2nc3nc(N4CC[C@H]4C(=O)N4CCN(CC(F)(F)C(F)F)CC4)nc(N)n3n2)o1` [Example 312, (S)-(1-(7-amino-2-(5-methylfuran-2-yl)-[1,2,4]triazolo[1,5-a][1,3,5]triazin-5-yl)azetidin-2-y1)(4-(2,2,3,3-tetrafluoropropyl)piperazin-1-yl)methanone] showed a pIC50 of 8.70. `C[C@H](Nc1nc(N)n2nc(-c3nccs3)nc2n1)C(=O)N1CCN(c2ccc(F)cc2F)CC1` [Example 194, (S)-2-((7-amino-2-(thiazol-2-yl)-[1,2,4]triazolo[1,5-a][1,3,5]triazin-5-yl)amino)-1-(4-(2,4-difluorophenyl)piperazin-1-yl)propan-1-one] gave a negative logarithm of the IC50 (pIC50) of 7.92.

For the compound `CC(C)(F)CN1CCN(C(=O)[C@@H](Nc2nc(N)n3nc(-c4ccco4)nc3n2)c2ccccc2)CC1` [Example 195, (S)-2-((7-amino-2-(furan-2-yl)-[1,2,4]triazolo[1,5-a][1,3,5]triazin-5-yl)amino)-1-(4-(2-fluoro-2-methylpropyl)piperazin-1-yl)-2-phenylethan-1-one], the negative-log IC50 (pIC50) is 8.52.

`Nc1nc(N2C[C@H](O)C[C@H]2C(=O)N2CCN(c3ccc(F)cc3F)CC2)nc2nc(-c3ccco3)nn12` [Example 37] had a pIC50 of 7.92.

As for `Nc1nc(N2CCC[C@H]2C(=O)N2CCC(C(=O)N3CCCCC3)CC2)nc2nc(-c3ccco3)nn12` [Example 142, (1-((7-amino-2-(furan-2-yl)-[1,2,4]triazolo[1,5-a][1,3,5]triazin-5-yl)-L-prolyl)piperidin-4-yl)(piperidin-1-yl)methanone], the negative-log IC50 (pIC50) was 7.89. The compound `C[C@H](Nc1nc(N)n2nc(-c3ccco3)nc2n1)C(=O)N1CCC(C2CCN(CC(C)(C)O)CC2)CC1` [Example 333, (S)-2-((7-amino-2-(furan-2-yl)-[1,2,4]triazolo[1,5-a][1,3,5]triazin-5-yl)amino)-1-(1′-(2-hydroxy-2-methylpropyl)-[4,4′-bipiperidin]-1-yl)propan-1-one] showed a pIC50 of 8.05. This pIC50 and that of the compound before are within 0.2 log units of each other. Regarding `CC(C)[C@H](Nc1nc(N)n2nc(-c3ccco3)nc2n1)C(=O)N1CCN(CCC(F)(F)F)CC1` [Example 367, (S)-2-((7-amino-2-(furan-2-yl)-[1,2,4]triazolo[1,5-a][1,3,5]triazin-5-yl)amino)-3-methyl-1-(4-(3,3,3-trifluoropropyl)piperazin-1-yl)butan-1-one], the negative logarithm of the IC50 (pIC50) is 7.85. `CC(C)[C@H](Nc1nc(N)n2nc(-c3ccco3)nc2n1)C(=O)N1CCN(c2ccc(F)cc2F)CC1` [Example 10, (S)-2-((7-amino-2-(furan-2-yl)-[1,2,4]triazolo[1,5-a][1,3,5]triazin-5-yl)amino)-1-(4-(2,4-difluorophenyl)piperazin-1-yl)-3-methylbutan-1-one] gave a pIC50 of 9.45. The figure for `Nc1nc(N[C@H](C(=O)N2CCN(CC(F)(F)F)CC2)C2CC2)nc2nc(-c3ccco3)nn12` [Example 216, (S)-2-((7-amino-2-(furan-2-yl)-[1,2,4]triazolo[1,5-a][1,3,5]triazin-5-yl)amino)-2-cyclopropyl-1-(4-(2,2,2-trifluoroethyl)piperazin-1-yl)ethan-1-one] is 7.74; for `C[C@H](Nc1nc(N)n2nc(-c3ccco3)nc2n1)C(=O)N1CCN(c2ccc(F)cc2F)CC1` [Example 9, (S)-2-((7-amino-2-(furan-2-yl)-[1,2,4]triazolo[1,5-a][1,3,5]triazin-5-yl)amino)-1-(4-(2,4-difluorophenyl)piperazin-1-yl)propan-1-one] it is 8.62; for `Nc1nc(N[C@@H](CO)C(=O)N2CCN(c3ccc(F)cc3F)CC2)nc2nc(-c3ccco3)nn12` [Example 8, (S)-2-((7-amino-2-(furan-2-yl)-[1,2,4]triazolo[1,5-a][1,3,5]triazin-5-yl)amino)-1-(4-(2,4-difluorophenyl)piperazin-1-yl)-3-hydroxypropan-1-one] it is 8.72.
